Patent US20170252433A1, “PSMA-RELATED THERAPIES” (Memorial Sloan Kettering Cancer Center, priority 2014, published 2017)

Columns and labels:
LNCaP and PC3-PSMA cells = assay: Total secreted prostaglandins; assay type: cell-based, human; conditions: 5 μM, 48 h, FIG. 5c-d
Text: LNCaP cells that have a functional AR pathway were obtained from ATCC (Manassas, Va.) and grown to confluence. […] The levels of nitric oxide attributed to nitric oxide synthase's activity and the concentration of total secreted prostaglandins were quantified with the corresponding kits purchased from Cayman Chemicals (Ann Arbor, Mich.).
Furthermore, it was examined whether PSMA inhibition affects the activity of nitric oxide synthase and the levels of prostaglandins, since both Akt and Ca+2 regulate these processes. The activity of nitric oxide synthase was assessed by quantifying the sample's total nitrate levels with a kit from Cayman Chemicals, whereas the levels of total prostaglandins secreted in the cell's medium were measured with the total prostaglandin kit from Cayman Chemicals. Inhibition of PSMA was performed with a PSMA inhibitor (5 μM) at 48 h at 37° C., 5% CO2.

nitric oxide synthase = assay: Nitric oxide synthase activity (total nitrate levels); assay type: cell-based, human; conditions: 5 μM, 48 h
Protocol: Gene expression array was performed after TRIzol-based RNA extraction on an U133A 2.0 gene array (Affymetrix, Santa Clara, Calif.). The output of the androgen receptor (AR) pathway was assessed by measuring the levels of prostate specific antigen (PSA). LNCaP cells that have a functional AR pathway were obtained from ATCC (Manassas, Va.) and grown to confluence. Then they were treated for 48 h with 2-PMPA (5 μM) for 48 h, followed by screening of the culture medium for secreted PSA with the DELFIA PSA assay (Perkin Elmer, Waltham, Mass.). The levels of nitric oxide attributed to nitric oxide synthase's activity and the concentration of total secreted prostaglandins were quantified with the corresponding kits purchased from Cayman Chemicals (Ann Arbor, Mich.). Alterations in energy production due to signaling changes were determined through quantification of the intracellular NAD+ and ATP lelels, using the NAD assay from Cayman Chemicals (Ann Arbor, Mich.) and the StayBrite ATP kit from Biovision (Milpitas, Calif.).
Furthermore, it was examined whether PSMA inhibition affects the activity of nitric oxide synthase and the levels of prostaglandins, since both Akt and Ca+2 regulate these processes. […]

[1] = tested on: phosphorylation of CAMKK2, AMPKα and AKT in PSMA-expressing and PSMA-negative (PC3-wt) cells; assay: Phosphorylation status by isoelectric focusing (NanoPro); assay type: cell-based, human; conditions: for CAMKK2 phosphorylation: 5 μM, 48 h, FIG. 3b
Protocol: (§1) CAMKK2, AMPKα and AKT antibodies were purchased from Cell Signaling (Danvers, Mass.). Cells were grown to confluence and treated with 2-PMPA (5 μM, Tocris) for 48 h. The phosphorylation status of proteins of interest was determined with an isoelectric-focusing instrument (NanoPro1000, Protein Simple, Santa Clara, Calif.), where the samples were prepared and analyzed according to the supplier's guidelines. Determination of site-specific phosphorylation of key proteins was performed with a human phosphor-kinase array (ARY003, R&D Systems, Minneapolis, Minn.), according to the product's instructions.
Phosphorylation state of calcium dependent downstream effectors was analyzed. Since activation of metabotropic glutamate receptors and their associated G proteins can lead to phosphorylation of downstream effectors, phosphorylation levels of key proteins relative to PSMA expression was examined. The NanoPro system from Protein Simple was used, which allowed the determination of global phosphorylation status based on the isoelectric point changes of the target protein. The samples were prepared according to the supplier's guidelines, following lysis of the cells with the NanoPro lysis buffer. All antibodies used were purchased from Cell Signaling, detecting the total protein levels of a target protein. […] (FIG. 3b). […] It has been previously shown that either G protein-activated PI3K or calcium-activated mTORC2 phosphorylating PAK can cause Akt's phosphorylation. All graphs depict mean±s.e.m.

[2] = tested on: PSMA-expressing (LNCaP-PSMA+ve) and PSMA-negative (LNCaP-PSMA-ve) cells; assay: Cell viability with ROS-generating drug Elesclomol (Alamar Blue); assay type: cell-based, human; conditions: 2-PMPA 250 nM, 48 h; Elesclomol 250 nM; FIG. 8 C and D
Protocol: Cell viability of (A) PSMA-expressing (LNCaP-PSMA+ve) and (B) PSMA-negative cells (LNCaP-PSMA-ve where PSMA expression was knocked down with shRNA) was determined via the fluorescence-based Alamar Blue method (λex=565 nm and λem=585 nm). Cell viability was assessed 48 h after drug administration with either vehicle (DMSO) or the ROS-generating drug Elesclomol (250 nM, Selleck Chemicals). […] The cells were treated for 48 h, and cell viability was determined with the Alamar Blue method.

LNCaP-wt cells = assay: Human phospho-kinase array (kinome profiling); assay type: cell-based; conditions: 48 h, 5 μM, FIG. 4a
Protocol: as §1
Considering that PSMA inhibition affected the phosphorylation of some key kinases, a human kinome-profiling array from R&D Systems was utilized to obtain a wider view of other kinases being regulated by this protein. LNCaP-wt cells were grown in the presence of a PSMA inhibitor (48 h, 5 μM) and PC3-PSMA cells were grown under puromycin-induced selection. Control cells included LNCaP-wt and PC3-wt cells grown for 48 h in complete RPMI media. The cells were lysed and processed according to the array's protocol, and the array was performed according to its supplier's guideline. Imaging of the array's membranes was performed after film exposure in the presence of a chemiluniescent substrate and HRP-conjugated detecting antibodies, processed in a dark room.

LNCaP-wt xenografts = assay: Photoacoustic imaging of tumor vascularization and oxygenation; assay type: in vivo, male athymic, nude mice; conditions: 0.4 mM, 100 μL retro-orbital injection daily
Protocol: Male, athymic, nude mice (Harlan Laboratories, Indianapolis, Ind.) were implanted with LNCaP xenografts (3 million cells in 100 μL Matrigel). Immediately post xengraft implantation, the mice were treated daily iv with 2-PMPA (0.4 mM, 100 μL retro-orbital injection). Tumor vascularization and oxygenation was assessed 15 days after treatment commencements, using the Vevo LAZR small-animal photoacoustic imaging platform (Visualsonics, Toronto, ON, Canada).
The tumors used in the study had roughly the same size. […] (FIG. 6 a-b). […] (FIG. 6c)

O=C(O)CCC(CP(=O)(O)O)C(=O)O (stereo not shown) [2-PMPA]
total levels of secreted prostaglandins (LNCaP and PC3-PSMA cells): decreased
nitrate concentration (nitric oxide synthase; PC3-wt cells that do not express PSMA): did not affect nitrate concentration
nitric oxide synthase activity (nitrate levels) (nitric oxide synthase; PSMA-expressing cells, FIG. 5c-d): decreased nitric oxide synthase activity
CAMKK2 phosphorylation ([1]; PSMA-expressing cells): decreased CAMKK2's phosphorylation
phosphorylation of AMPKα ([1]; PSMA-positive cells, FIG. 3c): impaired
phosphorylation of AKT ([1]; PSMA-positive cells, FIG. 3d): impaired
CAMKK2 phosphorylation ([1]; cells lacking PSMA): no effect
resistance to ROS-generating drug (cell viability) [2]: abrogates drug resistance and renders the cells susceptible to cell death
phosphorylation of many proteins including TOR, p27, and Src (LNCaP-wt cells): decreased
tumor total hemoglobin levels (LNCaP-wt xenografts; FIG. 6a-b): lower total hemoglobin levels
tumor consumption of oxygen (LNCaP-wt xenografts; FIG. 6c): lower consumption of oxygen
tumor oxygenation (LNCaP-wt xenografts; versus saline): lower tumor oxygenation
tumor vascularization (LNCaP-wt xenografts; versus saline, FIG. 6a-b): lower tumor vascularization
